Laboratory results from patent publication US11730714B2, “Compounds for the treatment of neuromuscular disorders” (NMD PHARMA A/S, priority 2017, dated 2023).

Tests used:
Type in all cases: cell-based
human CIC-1 channels = target: T1, human CIC-1 channels (Homo sapiens, UniProt P35523); assay: Automated patch-clamp on human CIC-1 expressed in CHO cells (shift in half activation voltage V1/2); details: compound in intracellular solution vs vehicle control patches; CHO cells expressing human ClC-1
T1 construct: host or cells: CHO (Chinese hamster ovary) cells, cryopreserved, used directly after thawing
T1 sequence (P35523 whole entry): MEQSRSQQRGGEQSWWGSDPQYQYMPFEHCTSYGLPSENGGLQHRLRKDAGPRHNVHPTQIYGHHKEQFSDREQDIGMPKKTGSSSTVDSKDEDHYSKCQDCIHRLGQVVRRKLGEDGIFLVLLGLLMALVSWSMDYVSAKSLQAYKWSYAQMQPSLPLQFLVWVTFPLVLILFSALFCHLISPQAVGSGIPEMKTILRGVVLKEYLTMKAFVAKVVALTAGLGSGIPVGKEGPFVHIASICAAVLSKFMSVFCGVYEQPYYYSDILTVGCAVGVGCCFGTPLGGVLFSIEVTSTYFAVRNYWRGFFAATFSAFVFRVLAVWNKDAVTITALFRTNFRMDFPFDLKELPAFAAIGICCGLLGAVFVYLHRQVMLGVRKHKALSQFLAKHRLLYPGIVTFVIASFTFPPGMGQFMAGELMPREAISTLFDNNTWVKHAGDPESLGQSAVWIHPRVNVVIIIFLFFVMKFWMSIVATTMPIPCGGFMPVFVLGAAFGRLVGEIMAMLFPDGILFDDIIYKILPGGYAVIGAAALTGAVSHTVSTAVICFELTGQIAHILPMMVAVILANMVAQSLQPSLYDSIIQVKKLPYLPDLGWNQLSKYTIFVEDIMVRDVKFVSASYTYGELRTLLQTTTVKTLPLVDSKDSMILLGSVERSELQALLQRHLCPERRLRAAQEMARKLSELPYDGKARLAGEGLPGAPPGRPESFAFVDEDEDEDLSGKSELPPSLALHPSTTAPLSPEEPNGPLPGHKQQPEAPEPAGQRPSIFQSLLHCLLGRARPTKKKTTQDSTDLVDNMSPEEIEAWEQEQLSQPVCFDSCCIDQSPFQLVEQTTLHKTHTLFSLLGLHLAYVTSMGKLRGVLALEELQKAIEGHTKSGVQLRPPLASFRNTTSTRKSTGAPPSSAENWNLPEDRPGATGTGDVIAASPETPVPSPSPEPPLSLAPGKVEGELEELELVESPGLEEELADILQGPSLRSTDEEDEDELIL
Experimental: FIG. 13A-13B: FIG. 13A illustrates the voltage protocol used to evoke currents in whole cell patches of CHO cells expressing human CIC-1 channels.
The investigatory goal of these experiments was to evaluate how compounds affect the open probability and current amplitude of human CIC-1 channels expressed in CHO cells. Experiments were performed using an automated patch clamp system that allowed high throughput testing of whole cell patches together with both intracellular and extracellular addition of compound.
Automated whole cell patch clamp experiments were performed with the Qpatch 16 system (Sophion Bioscience, Ballerup, Denmark) at room temperature. Data acquisition and analysis were performed in the Qassay software (ver. 5.6, Odense).
To obtain tail currents, the membrane potential was stepped to −100 mV after each test voltage for 300 ms and then relaxed to −30 mV for 2 sec between sweeps (FIG. 3). I/V relationships for whole cell instant and steady state current amplitudes were obtained by plotting average current densities at the beginning and at the end of the 300 ms step against the membrane potential (FIG. 4).
In order to determine the relative overall open probability (Po), the instantaneous tail currents were normalized to the maximal tail current obtained following the most positive voltage step and plotted against the test voltage. Plots of normalized tail currents from each whole cell patch were then fitted to a Boltzmann function allowing determination of half activation voltages (V1/2, FIG. 5).
Osmolality adjusted to […] using sucrose.
Intracellular solutions contained: 80 mM […], 60 mM CsCl, 5/1 mM KOH/EGTA, 10 mM HEPES, 10 mM NaCl, pH adjusted to 7.2 with NaOH (2 M). Osmolality adjusted to ˜320 mOsm using sucrose.
Cells used in patch clamp experiments were Chinese hamster ovary cells (CHO) constitutively expressing human CIC-1 channels. The amino acid sequence encoded by the cDNA used to create this cell line was identical to the translated sequence for GenBank accession number NM_000083.2. Cells were produced by Charles River (Catalogue CT6175, Cleveland Ohio, USA) in a cryopreserved format. Experiments were performed on the cells directly after thawing (3×10^6 cells used in each experiment).
To evaluate the compound effect on CIC-1, when applied directly to the intracellular side of the cell membrane, the half activation voltage, V1/2, was determined from whole cell patches with compound added to the intracellular solution and then compared to V1/2 determined from control cell patches with only vehicle added to the intracellular solution. Additionally, the effect of extracellular added compound was evaluated by determine V1/2 and steady state current amplitudes before and after exchanging the extracellular solution to contain compound.
The difference in half activation voltage of CIC-1 channels, […]V1/2, was determined as the difference between the cell patches treated intracellularly with compound and control cells patches and is reported in Table 4 below. A positive shift in […]V1/2 is reflecting CIC-1 channel inhibition by the tested compound. P-values of <0.05 is considered significant.

[1] = system: isolated rat soleus muscles; assay: Recovery of nerve-stimulated force in isolated rat soleus muscles exposed to sub-maximal tubocurarine; details: change in AUC vs AUC after 40 min in tubocurarine before addition
Experimental: Experiments were performed using rat soleus muscles from either young (4-wk-old) or adult Wistar rats (12-14-week-old). Animal handling, killing and isolation of muscle is described elsewhere All experiments were performed using normal Krebs-Ringer bicarbonate solution (NKR). In solutions with elevated Mg^2+, MgCl2 was added to NKR-solution causing minor increases in osmolarity and ionic strength. In solutions with elevated K^+, 4 mM NaCl was replaced by 4 mM KCl in the NKR.
In all contraction experiments, isometric force production was determined and force produced during contractions was quantified by measuring the integral of the force response (AUC). Stimulation and force recordings have been described elsewhere. […] In these latter experiments, extracellular recordings of action potentials (M-waves) could be measured without temporal overlap with stimulation artefacts.
The aim was to find compounds that by inhibition of CIC-1 channels can recover nerve-stimulated force under conditions of fatigue including conditions where fatigue is caused by compromised neuromuscular transmission. Neuromuscular transmission dysfunction can develop because of both pre- and/or post-synaptic complications in connection with a disorder or as part of neuromuscular blockade during/after surgery. In the initial series of drug testing, experiments were performed with isolated muscles in the presence of sub-maximal ACh receptor antagonist tubocurarine. Since the inclusion of tubocurarine caused a partial loss of neuromuscular transmission this experiment mimics the conditions in myasthenia gravis and neuromuscular blockade. To mimic conditions with pre-synaptic complication (Lambert Eaton syndrome, motor neuron disorder, polyneuropathy) the intact nerve-muscle preparations were incubated at elevated extracellular Mg^2+, which is known to suppress release of ACh from nerve terminals of motor neurons.
The experiments also illustrate that field stimulation of the entire nerve-muscle preparation selectively activates the motor nerve when short-duration pulses (0.02 vs 0.2 ms) were used. In FIG. 1A the preparation was stimulated either via field stimulation or via nerve-stimulation using a suction electrode. With the suction electrode only the nerve could be stimulated. When exposed to a submaximal concentration of the ACh receptor antagonist tubocurarine (0.2 μM) a clear drop in peak force and a further decline (or fade) in force during the stimulation developed. This drop in force clearly reflected compromised neuromuscular transmission, as the decline in peak force and fading were not seen with direct stimulation of the muscle. […] Thus, loss of M-wave and force with tubocurarine reflected partial blockade of neuromuscular function. Such fading of force and M-waves during stimulation represent clinical hallmarks of both myasthenia gravis and neuromuscular blockade in connection with surgery. In FIG. 1B, observations with normal (0.2 ms) and short-duration (0.02 ms) pulses have been compared. It can be seen that only with short-duration pulses did tubocurarine cause a decline in peak force and fading (FIG. 1B). This confirms that short-duration pulses in field stimulation could be used as specific nerve-stimulation. […] Elevated extracellular Mg^2+ could thus be used to partially block neuromuscular transmission and thus be used as a model of conditions with compromised pre-synaptic function (Lambert Eaton syndrome, amyotrophic lateral sclerosis, spinal muscular atrophy). […]

[2] = system: isolated rat soleus muscles; assay: Recovery of nerve-stimulated force in isolated rat soleus muscles with ACh receptors inhibited by 2 μM rocuronium; details: 50 μM C8 added after 2 μM rocuronium had reduced force to 51±5%; 8 muscles; p<0.01
Experimental: In a separate series of experiments with 8 isolated rat soleus muscles, ACh receptors were inhibited using 2 μM rocuronium, which is a clinically used neuromuscular blocking agent. Under these conditions the nerve-stimulated force was reduced to 51±5% of force before rocuronium. […] This illustrates the potential of these compounds to be used as reversal agents.

(2S)-2-(4-bromophenoxy)(2-^2H)butanoic acid [Compound A-60]
ΔV½ (difference in half activation voltage of ClC-1) (human CIC-1 channels): 20.0 mV

C[C@H](Oc1ccc(Br)cc1)C(=O)O [Compound C8, (2S)-2-(4-bromophenoxy)propanoic acid]
50 μM % change after addition (AUC of nerve-stimulated force) ([1]; 50 μM compound, AUC related to force prior to tubocurarine): 16% | 150 μM % change after addition (AUC of nerve-stimulated force) ([1]; 150 μM compound): 23% | nerve-stimulated contractile force recovered to % of force before rocuronium [2]: 81±4%
